Test results from US20100210611A1, “COMBINATION THERAPY” (priority 2007, published 2010).
Where “and” joins values, the source holds several entries; their conditions need not be identical. Equal values may be shown once.

Tests used:
[1] = system: Ascaris challenge in allergic sheep; assay: Allergic sheep model: EAR, LAR and AHR response to Ascaris challenge; format: in vivo; details: for AHR (%) inhibition / EAR (%) Inhibition / LAR (%) inhibition: single dose 30 minutes before Ascaris challenge
Method: The allergic sheep model was used to test the effect of inhaled montelukast acid against early asthmatic response (EAR), late asthmatic response (LAR) and airway hyper-reactivity (AHR) response to Ascaris challenge in allergic sheep. The compound was administered directly into the lungs using the Spinhaler DPI that was attached directly to an indwelling endotracheal tube. Capsules used in the Spinhaler contained a micronized blend of 20% drug/80% lactose, corresponding to approx. 5 mg of the active compound. The compound was administered as a single dose 30 minutes before Ascaris challenge. To optimize delivery, each Spinhaler actuation was synchronized with a series of aspiratory cycles.
Doses for inhalation were selected based on total IV doses administered in sheep studies that had been conducted. Administration of 3 or 9 capsules should achieve a total inhaled dose of approximately 0.1 mg/kg and 0.3 mg/kg, respectively. The purported dose delivered is an estimate based on an experimentally determined fine particle fraction efficiency of 30%. Plasma drug levels were measured at various time points throughout the study.
Initial experiments (n=2) were performed with 0.1 mg/kg of montelukast acid. […] The second set of experiments (n=4) was performed with 0.3 mg/kg of montelukast acid.

[2] = Blend uniformity (individual capsule assay); format: physicochemical; details: HPLC, Mean ± RSD
Method: To assess blend uniformity, capsules from each blend were opened and rinsed with methanol. The solution was sonicated for 5 minutes at room temperature, centrifuged at 3000 rpm for 15 minutes then assayed using a UV-VIS spectrophotometer at a wavelength of 346 nm. […]
To assess blend uniformity, the blend was sampled randomly from the glass vial. The drugs were extracted analogous to that described in section Blend Uniformity for Example 1. However, the content of montelukast acid and mometasone furoate were analyzed by High Performance Liquid Chromatography (HPLC) employing a phenyl column with a controlled temperature of 50° C., a mixture of water containing 0.2% trifluoroacetic acid (TFA) and acetonitrile containing 0.2% TFA (53:47) as the mobile phase at a flow rate 2 ml/min and UV-detection at 248 nm.
The blend uniformity was assessed in a manner analogous to that described in the Blend Uniformity section in Example 4, except the content of montelukast acid and ciclesonide were analyzed by High Performance Liquid Chromatography (HPLC) employing a phenyl column with a controlled temperature of 50° C., a mixture of water containing 0.2% trifluoroacetic acid (TFA) and acetonitrile containing 0.2% TFA (40:60) at a flow rate 2 ml/min and UV-detection at 248 nm.

[3] = Aerodynamic particle size distribution, Andersen cascade impaction (ACI); format: physicochemical; details: Spinhaler; for MMAD: cutoff diameter based on airflow rate of 28.3 L/min; for amount in ACI: including mouthpiece adapter
Text: The Andersen cascade impaction (ACI) (Apparatus 3) was the device used to determine the aerodynamic size distribution. The impaction provided in vitro measurements of the fraction of the aerosol that has the potential to reach the alveolar region of the lung. This value is represented by the portion of particles detected below plate 2. The impaction was operated at the flow rate and test time according to the method described in USP <601>. Because the Spinhaler® is a low resistance device, it is difficult to achieve a pressure drop of 4 kPa, an adjustment of the air flow rate at the intake of the flow control was performed, as discussed above. Each impaction plate was coated with silicone grease (316 Dow Corning) to prevent particles from bouncing off the plates and returning to the air stream. All stages were used since the test flow rate was less than 60 L/min. All pieces of the impaction including the inhaler and capsule were rinsed with solvent, diluted to suitable volumes, sonicated, centrifuged and assayed using the UV-VIS spectrophotometer. The respirable portion was quantified by the in vitro fine particle fraction and fine particle mass. Dose uniformity and cascade impaction tests were carried out at controlled temperature (20-25° C.) and humidity (50% RH). […]
Aerodynamic size distribution was performed according to USP Chapter <601> by using ACI Apparatus 3 with the Spinhaler® device analogous to that described in section Aerodynamic Particle Size Distribution for Example 1. However, the HPLC was used to analyze the content of the drugs as described in the Blend Uniformity in this example.
Aerodynamic size distribution was performed according to USP Chapter <601> by using ACI Apparatus 3 with the Spinhaler® device in a manner analogous to that described in section Aerodynamic Particle Size Distribution in Example 4. The content of the drugs were analyzed as described in the Blend Uniformity in this example.

[4] = Approx. 0.1 mg/kg (3 capsules) inhaled via Spinhaler, n=2
[5] = Approx. 0.3 mg/kg (9 capsules) inhaled via Spinhaler, n=4
[6] = Example 4 blend, blend with mometasone furoate
[7] = Example 5 blend, blend with ciclesonide

## CC(C)(O)c1ccccc1CC[C@@H](SCC1(CC(=O)O)CC1)c1cccc(/C=C/c2ccc3ccc(Cl)cc3n2)c1 [Montelukast Acid, montelukast acid]
[1]; 0.1 mg/kg inhaled, n=2
  inhibition of EAR, LAR and AHR (in words): partial inhibition of the LAR and AHR but not the EAR
[1]; 0.3 mg/kg inhaled, n=4
  inhibition of EAR, LAR and AHR (in words): Marked inhibition of all three phases of the response
[1]; [4]
  AHR (%) inhibition: 60%
  EAR (%) Inhibition: 7%
  LAR (%) inhibition: 42%
[1]; [5]
  AHR (%) inhibition: 76%
  EAR (%) Inhibition: 47%
  LAR (%) inhibition: 79%
[2]; Example 4 blend (montelukast acid 4%, mometasone furoate 1.6%)
  Amount Recovered (μg/Capsule): 940.4 µg and 907.0 µg and 953.9 µg
[2]; Example 4 blend (montelukast acid 4%, mometasone furoate 1.6%), mean
  Amount Recovered (μg/Capsule): 933.8 ± 2.6 µg
[2]; Example 4 blend
  Amount Recovered, %: 91.4% and 93.0% and 93.9%
[2]; Example 4 blend, mean
  Amount Recovered, %: 92.8 ± 1.4%
[2]; Example 5 blend (montelukast acid 4%, ciclesonide 0.64%)
  Amount Recovered (μg/Capsule): 943.3 µg and 928.8 µg and 997.5 µg
[2]; Example 5 blend (montelukast acid 4%, ciclesonide 0.64%), mean of three capsules
  Amount Recovered (μg/Capsule): 956.6 ± 3.4 µg
[2]; Example 5 blend
  Amount Recovered, %: 94.3% and 92.9% and 99.8%
[2]; Example 5 blend, mean of three capsules
  Amount Recovered, %: 95.7 ± 3.4%
[3]; Example 4 blend
  FPF: 29%
  MMAD: 4.5 μm
[3]; [6]
  FPD: 126.1 µg and 145.7 µg and 118.7 µg
  FPF: 28.6% and 28.4% and 29.9%
  GSD: 2.1 and 1.4
  Total recovered: 953 µg and 962 µg and 921 µg
  amount in inhaler: 512 µg and 450 µg and 524 µg
  MMAD: 4.6 μm and 4.4 μm
  amount in ACI: 441 µg and 513 µg and 397 µg
[3]; Example 4 blend, mean
  MMAD: 4.5 μm
  amount in ACI: 450 µg
  FPD: 130.2 µg
  FPF: 29.0%
  GSD: 1.6
  Total recovered: 945 µg
  amount in inhaler: 495 µg
[3]; Example 5 blend
  FPF: 38%
  MMAD: 3.9 μm
[3]; [7]
  FPD: 161.8 µg and 190.6 µg and 179.0 µg
  FPF: 35.2% and 40.7%
  GSD: 1.5 and 2.0
  Total recovered: 990 µg and 882 µg and 904 µg
  amount in inhaler: 530 µg and 413 µg and 431 µg
  MMAD: 3.9 μm and 4.0 μm and 3.8 μm
  amount in ACI: 459 µg and 468 µg and 472 µg
[3]; Example 5 blend, mean
  amount in ACI: 467 µg
  FPD: 177.1 µg
  FPF: 37.9%
  GSD: 1.7
  Total recovered: 925 µg
  amount in inhaler: 458 µg
